Test results taken from article PMC6199744, “Development of Chemical Proteomics for the Folateome and Analysis of the Kinetoplastid Folateome” (ACS Infectious Diseases, 2018).
Read-outs that look alike come from different tables or passages of the source.

Experiments:
Format in all cases: binding
[1] = molecular target: T1, HeLa cell extract proteins (Homo sapiens, UniProt Q96QU8)
T1 construct: endogenous in cells; host or cells: HeLa cell extract
T1 sequence (Q96QU8 1-1125): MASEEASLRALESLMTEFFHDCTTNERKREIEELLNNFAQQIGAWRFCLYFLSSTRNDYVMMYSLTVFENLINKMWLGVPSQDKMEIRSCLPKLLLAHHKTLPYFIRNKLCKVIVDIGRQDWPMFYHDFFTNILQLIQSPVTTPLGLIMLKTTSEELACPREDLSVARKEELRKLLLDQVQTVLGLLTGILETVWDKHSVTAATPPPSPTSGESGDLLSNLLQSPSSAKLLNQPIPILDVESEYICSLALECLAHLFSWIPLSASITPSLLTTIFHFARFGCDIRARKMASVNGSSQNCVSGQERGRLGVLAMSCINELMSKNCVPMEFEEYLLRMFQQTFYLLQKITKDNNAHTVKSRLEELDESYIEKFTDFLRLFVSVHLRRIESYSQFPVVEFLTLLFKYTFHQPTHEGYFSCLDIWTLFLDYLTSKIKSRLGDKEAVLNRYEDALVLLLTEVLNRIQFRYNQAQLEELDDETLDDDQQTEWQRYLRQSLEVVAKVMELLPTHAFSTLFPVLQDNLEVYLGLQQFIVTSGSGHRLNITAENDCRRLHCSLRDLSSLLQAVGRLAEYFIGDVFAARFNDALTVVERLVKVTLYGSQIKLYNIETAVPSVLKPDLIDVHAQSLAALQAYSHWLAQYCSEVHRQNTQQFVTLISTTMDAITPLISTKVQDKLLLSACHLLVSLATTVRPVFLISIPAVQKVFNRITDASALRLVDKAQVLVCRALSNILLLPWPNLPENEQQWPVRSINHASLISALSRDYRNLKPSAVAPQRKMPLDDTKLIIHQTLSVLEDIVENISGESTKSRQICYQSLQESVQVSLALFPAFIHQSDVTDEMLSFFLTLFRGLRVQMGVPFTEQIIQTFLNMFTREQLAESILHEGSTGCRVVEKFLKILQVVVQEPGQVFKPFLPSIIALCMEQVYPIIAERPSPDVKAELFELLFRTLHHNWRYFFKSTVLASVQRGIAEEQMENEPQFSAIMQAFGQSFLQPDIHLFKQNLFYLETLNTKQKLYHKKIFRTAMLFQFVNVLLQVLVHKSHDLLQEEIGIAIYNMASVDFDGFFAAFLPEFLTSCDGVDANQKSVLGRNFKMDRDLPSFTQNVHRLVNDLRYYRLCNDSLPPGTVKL

[2] = molecular target: T2, HeLa cell extract proteins (Homo sapiens, UniProt Q99805)
T2 construct: endogenous in cells; host or cells: HeLa cell extract
T2 sequence (Q99805 29-663): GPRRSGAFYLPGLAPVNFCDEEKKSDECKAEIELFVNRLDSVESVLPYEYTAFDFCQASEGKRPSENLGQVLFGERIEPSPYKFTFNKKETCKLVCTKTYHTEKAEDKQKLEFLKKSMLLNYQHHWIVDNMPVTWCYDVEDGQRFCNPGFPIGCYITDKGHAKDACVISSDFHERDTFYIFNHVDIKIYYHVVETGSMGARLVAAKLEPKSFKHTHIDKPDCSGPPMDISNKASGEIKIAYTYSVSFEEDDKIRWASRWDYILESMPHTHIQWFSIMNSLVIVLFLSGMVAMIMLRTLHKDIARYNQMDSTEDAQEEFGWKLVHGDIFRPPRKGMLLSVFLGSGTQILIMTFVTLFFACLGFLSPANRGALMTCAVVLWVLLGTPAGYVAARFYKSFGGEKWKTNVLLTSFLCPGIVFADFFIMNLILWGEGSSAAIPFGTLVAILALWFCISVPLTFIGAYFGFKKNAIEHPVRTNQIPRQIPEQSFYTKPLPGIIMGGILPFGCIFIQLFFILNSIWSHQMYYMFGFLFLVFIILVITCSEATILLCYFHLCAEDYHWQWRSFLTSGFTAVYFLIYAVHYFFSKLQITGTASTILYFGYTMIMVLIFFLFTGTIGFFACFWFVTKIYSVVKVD

[3] = molecular target: T3, HeLa cell extract proteins (Homo sapiens, UniProt P52298)
T3 construct: endogenous in cells; host or cells: HeLa cell extract
T3 sequence (P52298 1-156): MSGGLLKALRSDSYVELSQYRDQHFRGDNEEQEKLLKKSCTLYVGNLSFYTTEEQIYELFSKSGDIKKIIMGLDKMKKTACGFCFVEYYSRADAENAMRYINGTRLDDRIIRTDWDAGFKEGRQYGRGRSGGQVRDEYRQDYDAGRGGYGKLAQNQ

[4] = molecular target: T4, HeLa cell extract proteins (Homo sapiens, UniProt P12268)
T4 construct: endogenous in cells; host or cells: HeLa cell extract

[5] = molecular target: T5, HeLa cell extract proteins (Homo sapiens, UniProt Q9BVK8); details: HeLa; protein TMEM147
T5 construct: endogenous in cells; host or cells: HeLa cell extract
T5 sequence (Q9BVK8 1-224): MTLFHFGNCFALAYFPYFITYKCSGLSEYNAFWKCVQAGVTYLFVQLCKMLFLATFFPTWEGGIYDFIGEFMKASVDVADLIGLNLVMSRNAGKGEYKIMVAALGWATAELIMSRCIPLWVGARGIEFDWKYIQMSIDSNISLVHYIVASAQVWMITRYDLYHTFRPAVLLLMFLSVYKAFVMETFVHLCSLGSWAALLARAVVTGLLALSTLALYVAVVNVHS

[6] = molecular target: T6, HeLa cell extract proteins (Homo sapiens, UniProt Q9Y5V3); details: captured protein MAGED1; HeLa
T6 construct: endogenous in cells; host or cells: HeLa cell extract
T6 sequence (Q9Y5V3 1-778): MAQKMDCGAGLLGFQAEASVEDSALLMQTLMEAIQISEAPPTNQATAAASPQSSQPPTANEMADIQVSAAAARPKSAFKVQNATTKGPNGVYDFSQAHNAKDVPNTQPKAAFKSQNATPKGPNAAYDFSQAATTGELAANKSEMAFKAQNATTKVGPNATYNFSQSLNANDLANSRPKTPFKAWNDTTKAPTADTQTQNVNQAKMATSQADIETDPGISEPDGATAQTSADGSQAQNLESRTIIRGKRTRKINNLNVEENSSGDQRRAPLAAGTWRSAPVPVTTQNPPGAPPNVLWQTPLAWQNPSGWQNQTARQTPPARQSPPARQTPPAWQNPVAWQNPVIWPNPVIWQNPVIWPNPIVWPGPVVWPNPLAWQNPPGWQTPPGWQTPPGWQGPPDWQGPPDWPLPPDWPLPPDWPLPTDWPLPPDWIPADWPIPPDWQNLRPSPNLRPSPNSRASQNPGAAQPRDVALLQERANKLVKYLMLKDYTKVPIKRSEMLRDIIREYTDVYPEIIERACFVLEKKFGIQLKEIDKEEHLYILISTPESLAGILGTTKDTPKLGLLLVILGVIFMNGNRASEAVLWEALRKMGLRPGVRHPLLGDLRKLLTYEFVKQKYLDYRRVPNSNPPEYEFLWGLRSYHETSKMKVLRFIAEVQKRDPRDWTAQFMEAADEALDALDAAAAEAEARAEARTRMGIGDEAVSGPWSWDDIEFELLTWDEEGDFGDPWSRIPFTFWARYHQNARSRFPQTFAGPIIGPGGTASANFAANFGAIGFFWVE

[7] = molecular target: T7, HeLa cell extract proteins (Homo sapiens, UniProt O75323); details: protein GBAS; HeLa
T7 construct: endogenous in cells; host or cells: HeLa cell extract
T7 sequence (O75323 24-286): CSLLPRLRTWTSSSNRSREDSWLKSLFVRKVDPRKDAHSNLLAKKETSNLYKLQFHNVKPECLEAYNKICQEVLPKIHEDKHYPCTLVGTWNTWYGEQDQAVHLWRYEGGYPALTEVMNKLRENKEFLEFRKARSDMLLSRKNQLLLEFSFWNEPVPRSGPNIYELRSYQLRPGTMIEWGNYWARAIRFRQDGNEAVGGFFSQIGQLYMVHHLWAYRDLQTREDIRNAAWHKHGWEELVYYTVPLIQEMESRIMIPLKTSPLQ

[8] = HeLa, protein NCBP2 (NUCLEAR CAP-BINDING PROTEIN SUBUNIT 2)

Nc1nc2c(c(=O)[nH]1)N(C=O)C(CNc1ccc(C(=O)N[C@@H](CCC(=O)O)C(=O)O)cc1)CN2 (stereo partly shown) [LEU, leucovorin]
fold changes relative to vehicle control ([1]; HeLa, protein XPO6): 0.99
fold changes relative to vehicle control ([2]; HeLa, protein TM9SF2): 0.74
fold changes relative to vehicle control [3, 8]: 1.05
fold changes relative to vehicle control ([4]; HeLa, protein IMPDH2): 1.06

NCCCNc1ccc(C(=O)NC(CCC(=O)O)C(=O)O)cc1 (stereo not shown) [compound 7]
fold changes relative to vehicle control ([1]; HeLa, protein XPO6): 1.08
fold changes relative to vehicle control ([2]; HeLa, protein TM9SF2): 0.82
fold changes relative to vehicle control [3, 8]: 0.95
fold changes relative to vehicle control ([4]; HeLa, protein IMPDH2): 1.03

CCCCCCOc1cccc(Cc2cnc(N)nc2N)c1 [compound 2]
fold changes relative to vehicle control [5]: 0.97
fold changes relative to vehicle control [6]: 0.78
fold changes relative to vehicle control [7]: 1.29

CCCCCCOc1ccc(Cc2cnc(N)nc2N)cc1 [compound 1]
fold changes relative to vehicle control [5]: 0.72
fold changes relative to vehicle control [6]: 0.98
fold changes relative to vehicle control [7]: 1.26

Nc1nc2cccc(-c3ccccc3)c2n1Cc1ccc(Cl)c(Cl)c1 [compound 3]
fold changes relative to vehicle control [5]: 0.96
fold changes relative to vehicle control [6]: 0.88
fold changes relative to vehicle control [7]: 1.01

NCCOCCOCC(=O)Nc1nc2ncc(CNc3ccc(C(=O)NC(CCC(=O)O)C(=O)O)cc3)nc2c(=O)[nH]1 (stereo not shown) [compound 6]
fold changes relative to vehicle control ([1]; HeLa, protein XPO6): 1.09
fold changes relative to vehicle control ([2]; HeLa, protein TM9SF2): 0.84
fold changes relative to vehicle control [3, 8]: 0.91
fold changes relative to vehicle control ([4]; HeLa, protein IMPDH2): 1.18

Nc1nc2[nH]cc(CCc3ccc(C(=O)N[C@@H](CCC(=O)O)C(=O)O)cc3)c2c(=O)[nH]1 [PTX, pemetrexed]
fold changes relative to vehicle control [1]: 0.98
fold changes relative to vehicle control [2]: 0.76
fold changes relative to vehicle control [3]: 0.91
fold changes relative to vehicle control [4]: 0.97
